Assay results published in patent US9573961B2, “Inhibitors of the renal outer medullary potassium channel” (Merck Sharp & Dohme Corp., priority 2012, dated 2017).
Like-named read-outs stand apart in the source and are kept apart here.

Key:
[1] = molecular target: Kir1.1 (ROMK1) (Homo sapiens (Human), UniProt P48048); assay: Electrophysiology Assay (whole cell voltage clamp, IonWorks Quattro); assay type: cell-based; settings: block during voltage step to 0 mV
Outline: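 CHO cells stably expressing the channel, induced overnight with 1 mM sodium butyrate, were recorded in amphotericin-perforated patch mode. The test pulse was a 100 ms step to 0 mV from −70 mV, then a −70 to +70 mV ramp, applied before and after a 6 min compound incubation. Current amplitudes were compared.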

[2] = molecular target: hROMK (hKir1.1) (Homo sapiens (Human), UniProt P48048); assay: Thallium Flux Assay (ROMK channel functional thallium flux, FLIPR-Tetra); assay type: cell-based
Method: Cell Culture Conditions—HEK293 cells stably expressing hROMK (hKir1.1) were grown at 37° C. in a 10% CO2 humidified incubator in complete growth media: Dulbecco's Modified Eagle Medium supplemented with non-essential amino acids, Penicillin/Streptomycin/Glutamine, G418 and FBS. At >80% confluency, aspirate the media from the flask and rinse with 10 mL Calcium/Magnesium-free PBS. […] To dislodge the cell, gently bang the side of the flask with your hand. Triturate the cells completely and then transfer the cells to 25 mL complete media. Centrifuge at 1,500 rpm for 6 min followed by resuspension in complete growth media and determine cell concentration. […] Under ideal growth conditions and appropriate tissue culture practices, this cell line is stable for 40-45 passages.
FluxOR Kit Components (Invitrogen F10017) • FluxOR™ Reagent (Component A) • FluxOR™ Assay Buffer (Component B)—10× Concentrate • PowerLoad™ Concentrate (Component C)—100× Concentrate • Probenecid (Component D)—Lyophilized sample is kept at −20° C. Water soluble, 100× after solubilization in 1 mL water. […] Store at 4° C. • Thallium sulfate (Tl2SO4) Concentrate (Component G)—50 mM in water. Store at 4° C. • DMSO (dimethyl sulfoxide, Component H)—1 mL (100%)
Can be stored at room temperature • Stimulant Buffer (prepared at 5× final concentration in 1× FluxOR™ Chloride-Free Buffer): 7.5 mM Thallium sulfate and 0.75 mM Potassium sulfate (to give a final assay concentration of 3 mM Thallium/0.3 mM Potassium). Store at 4° C. when not in use. If kept sterile, this solution is good for months.
Assay Protocol—The ROMK channel functional thallium flux assay is performed in 384 wells, using the FLIPR-Tetra instrument. HEK-hKir1.1 cells are seeded in Poly-D-Lysine microplates and kept in a 37° C.-10% CO2 incubator overnight. On the day of the experiment, the growth media is replaced with the FluxOR™ reagent loading buffer and incubated, protected from light, at ambient temperature (23-25° C.) for 90 min. The loading buffer is replaced with assay buffer±test compound followed by 30 min incubation at ambient temperature, where the Thallium/Potassium stimulant is added to the microplate.
Step Protocol • 1. Seed HEK-hKir1.1 cells (50 μl at 20,000 cells/well) in 384-well PDL coated Microplates • 2. Allow cells to adhere overnight in humidified 37° C./10% CO2 incubator • 3. Completely remove cell growth media from microplate and replace with 25 μl loading buffer • 4. Incubate Microplate at room temperature, protected form light, for 90 min • 5. Remove loading buffer and replace with 25 μl 1× Assay Buffer±test compound. • 6. Incubate microplate at room temperature, protected from light, for 30 min • 7. […] Excitation=400 nm, Emission=460 & 580 nm. Collect data for ˜10 min.
Data Calculation—The fluorescence intensity of wells containing 3 μM of a standard control ROMK inhibitor of the present invention is used to define the ROMK-sensitive component of thallium flux. Fluorescence in the presence of test compounds is normalized to control values to provide % fluorescence change.

[3] = Electrophysiology IC50, Chinese hamster ovary cells stably expressing Kir1.1
[4] = HEK293 cells stably expressing hROMK (hKir1.1), read-out: Thallium Flux IC50
[5] = Chinese hamster ovary cells stably expressing Kir1.1, read-out: Electrophysiology IC50

Kir1.1 (ROMK1), sequence (P48048 whole entry): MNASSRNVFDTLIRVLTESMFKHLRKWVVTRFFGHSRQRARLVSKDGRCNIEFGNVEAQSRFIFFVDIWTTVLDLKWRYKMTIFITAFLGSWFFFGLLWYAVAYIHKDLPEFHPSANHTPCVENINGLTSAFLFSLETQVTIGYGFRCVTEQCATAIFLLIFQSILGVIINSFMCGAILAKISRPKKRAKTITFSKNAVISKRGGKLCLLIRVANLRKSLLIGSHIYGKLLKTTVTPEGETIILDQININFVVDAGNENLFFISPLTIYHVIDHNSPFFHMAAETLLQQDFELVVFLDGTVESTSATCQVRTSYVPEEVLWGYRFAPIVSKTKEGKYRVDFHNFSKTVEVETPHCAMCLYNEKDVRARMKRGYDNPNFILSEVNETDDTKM
hROMK (hKir1.1), sequence (P48048 whole entry): as above

SMILES | IC50 [1, 3] [nM] | IC50 [2, 4] [nM] | IC50 [1, 5] [nM] | IC50 ([2]; read-out: Thallium Flux IC50) [nM] | IC50 ([2]; Thallium Flux IC50) [nM]
O=C1OCc2c1ccc([C@H]1CN3CCN(C(=O)Cc4ccc(-n5cnnn5)cc4)C[C@H]3CO1)c2Cl [Example 21, 4-chloro-5-[(3S,9aS)-8-{[4-(1H-tetrazol-1-yl)phenyl]acetyl}octahydropyrazino[2,1-c][1,4]oxazin-3-yl]-2-benzofuran-1(3H)-one] | 100 | 100 | – | – | –
COc1cc(CC(=O)N2CCN3C[C@H](c4ccc5c(c4)CCOC5=O)OC[C@H]3C2)ccc1C#N [Example 28, 2-methoxy-4-{2-oxo-2-[(3S,9aR)-3-(1-oxo-3,4-dihydro-1H-isochromen-6-yl)hexahydropyrazino[2,1-c][1,4]oxazin-8(1H)-yl]ethyl}benzonitrile] | 130 | 330 | – | – | –
Cc1c([C@@H]2CN3CCN(C(=O)Cc4ccc(-n5cnnn5)cc4C#N)C[C@@H]3CO2)ccc(F)c1C#N [Example 68, 3-[(3R,9aR)-8-{[2-cyano-4-(1H-tetrazol-1-yl)phenyl]acetyl}octahydropyrazino[2,1-c][1,4]oxazin-3-yl]-6-fluoro-2-methylbenzonitrile] | 120 | 210 | – | – | –
Cc1c([C@H]2CN3CCN(C(=O)Cc4cccc(-n5cnnn5)c4)C[C@H]3CO2)ccc(F)c1C#N [Example 46, 6-fluoro-2-methyl-3-[(3S,9aS)-8-{[3-(1H-tetrazol-1-yl)phenyl]acetyl}octahydropyrazino[2,1-c][1,4]oxazin-3-yl]benzonitrile] | – | 240 | 140 | – | –
Cc1c([C@@H]2CN3CCN(C(=O)Cc4ccc(-n5cnnn5)cc4Cl)C[C@@H]3CO2)ccc(F)c1C#N [Example 69, 3-[(3R,9aR)-8-{[2-chloro-4-(1H-tetrazol-1-yl)phenyl]acetyl}octahydropyrazino[2,1-c][1,4]oxazin-3-yl]-6-fluoro-2-methylbenzonitrile] | 110 | – | – | 100 | –
Cc1c([C@@H]2CN3CCN(C(=O)Cc4ccc(-n5cnnn5)cc4)C[C@H]3CO2)ccc2c1COC2=O [Example 1A, 4-methyl-5-[(3R,9aS)-8-{[4-(1H-tetrazol-1-yl)phenyl]acetyl}octahydropyrazino[2,1-c][1,4]oxazin-3-yl]-2-benzofuran-1(3H)-one] | 100 | 30 | – | – | –
Cc1c([C@@H]2CN3CCN(C(=O)Cc4ccc(-n5cnnn5)cc4)C[C@@H]3CO2)ccc2c1COC2=O [Example 13, 4-methyl-5-[(3R,9aR)-8-{[4-(1H-tetrazol-1-yl)phenyl]acetyl}octahydropyrazino[2,1-c][1,4]oxazin-3-yl]-2-benzofuran-1(3H)-one] | 150 | 120 | – | – | –
COc1c([C@@H]2CN3CCN(C(=O)Cc4ccc(-n5cnnn5)cc4)C[C@H]3CO2)ccc(F)c1C#N [Example 32, 6-fluoro-2-methoxy-3-[(3R,9aS)-8-{[4-(1H-tetrazol-1-yl)phenyl]acetyl}octahydropyrazino[2,1-c][1,4]oxazin-3-yl]benzonitrile] | 140 | – | – | 100 | –
Cc1c([C@H]2CN3CCN(C(=O)Cc4cc(-n5cnnn5)ccc4F)C[C@@H]3CO2)ccc(F)c1C#N [Example 58, 6-fluoro-3-[(3S,9aR)-8-{[2-fluoro-5-(1H-tetrazol-1-yl)phenyl]acetyl}octahydropyrazino[2,1-c][1,4]oxazin-3-yl]-2-methylbenzonitrile] | – | 180 | 80 | – | –
Cc1c([C@H]2CN3CCN(C(=O)C4CCCc5cc(-n6cnnn6)ccc54)C[C@H]3CO2)ccc2c1COC2=O (single isomer, unassigned) [Example 88] | – | 380 | 460 | – | –
Cc1c([C@H]2CN3CCN(C(=O)Cc4ccc5c(c4)COC5=O)C[C@H]3CO2)ccc(F)c1C#N [Example 23, 6-fluoro-2-methyl-3-{(3S,9aS)-8-[(1-oxo-1,3-dihydro-2-benzofuran-5-yl)acetyl]octahydropyrazino[2,1-c][1,4]oxazin-3-yl}benzonitrile] | 70 | – | – | 70 | –
Cc1c([C@@H]2CN3CCN(C(=O)C4CCc5cc(-n6cnnn6)ccc54)C[C@H]3CO2)ccc(F)c1C#N (mixture of isomers) [Example 2A, 3-((3R,9aS)-8-(5-(1H-tetrazol-1-yl)-2,3-dihydro-1H-indene-1-carbonyl)octahydropyrazino[2,1-c][1,4]oxazin-3-yl)-6-fluoro-2-methylbenzonitrile] | – | 170 | 140 | – | –
Cc1c([C@@H]2CN3CCN(C(=O)C4CCCc5cc(-n6cnnn6)ccc54)C[C@H]3CO2)csc1C#N (single isomer, unassigned) [Example 96] | – | 460 | 190 | – | –
COc1cc(CC(=O)N2CCN3C[C@H](c4ccc5c(c4)CCOC5=O)OC[C@H]3C2)c(F)cc1C#N [Example 31, 5-fluoro-2-methoxy-4-{2-oxo-2-[(3S,9aR)-3-(1-oxo-3,4-dihydro-1H-isochromen-6-yl)hexahydropyrazino[2,1-c][1,4]oxazin-8(1H)-yl]ethyl}benzonitrile] | 120 | 570 | – | – | –
Cc1c([C@@H]2CN3CCN(C(=O)Cc4c(F)cc(-n5cnnn5)cc4F)C[C@H]3CN2)ccc(F)c1C#N [Example 102] | 160 | – | – | – | 150
Cc1c([C@@H]2CN3CCN(C(=O)Cc4cccc(-n5cnnn5)c4)C[C@@H]3CO2)ccc(F)c1C#N [Example 56, 6-fluoro-2-methyl-3-[(3R,9aR)-8-{[3-(1H-tetrazol-1-yl)phenyl]acetyl}octahydropyrazino[2,1-c][1,4]oxazin-3-yl]benzonitrile] | – | 200 | 60 | – | –
Cc1c([C@H]2CN3CCN(C(=O)C4CCc5cc(-n6cnnn6)ccc54)C[C@H]3CO2)ccc2c1COC2=O (single isomer, unassigned) [Example 81] | – | 230 | 260 | – | –
Cc1c([C@@H]2CN3CCN(C(=O)Cc4ccc5c(c4)COC5=O)C[C@H]3CO2)ccc(F)c1C#N [Example 24, 6-fluoro-2-methyl-3-{(3R,9aS)-8-[(1-oxo-1,3-dihydro-2-benzofuran-5-yl)acetyl]octahydropyrazino[2,1-c][1,4]oxazin-3-yl}benzonitrile] | 80 | – | – | 60 | –
Cc1c([C@@H]2CN3CCN(C(=O)Cc4ccc(-n5cnnn5)cc4C#N)C[C@H]3CO2)ccc(F)c1C#N [Example 67, 3-[(3R,9aS)-8-{[2-cyano-4-(1H-tetrazol-1-yl)phenyl]acetyl}octahydropyrazino[2,1-c][1,4]oxazin-3-yl]-6-fluoro-2-methylbenzonitrile] | 170 | 130 | – | – | –
COc1cc([C@H]2CN3CCN(C(=O)Cc4ccc(-n5cnnn5)cc4)C[C@@H]3CO2)ccc1C#N [Example 18, 2-methoxy-4-[(3S,9aR)-8-{[4-(1H-tetrazol-1-yl)phenyl]acetyl}octahydropyrazino[2,1-c][1,4]oxazin-3-yl]benzonitrile] | 110 | 250 | – | – | –
COc1cc([C@@H]2CN3CCN(C(=O)C4CCc5cc(-n6cnnn6)ccc54)C[C@H]3CO2)ccc1C#N (stereo partly drawn) [Example 65, 2-methoxy-4-[(3R,9aS)-8-{[5-(1H-tetrazol-1-yl)-2,3-dihydro-1H-inden-1-yl]carbonyl}octahydropyrazino[2,1-c][1,4]oxazin-3-yl]benzonitrile] | – | 400 | 350 | – | –
Cc1c([C@@H]2CN3CCN(C(=O)Cc4cc(F)c(-n5cnnn5)cc4F)C[C@@H]3CO2)ccc(F)c1C#N [Example 54, 3-[(3R,9aR)-8-{[2,5-difluoro-4-(1H-tetrazol-1-yl)phenyl]acetyl}octahydropyrazino[2,1-c][1,4]oxazin-3-yl]-6-fluoro-2-methylbenzonitrile] | 100 | – | – | 100 | –
